Columns and labels:
A. viscosus = assay: Growth inhibition of A. viscosus (optical density over time); format: cell-based; conditions: for optical density of A. viscosus culture, 0 h / optical density of A. viscosus culture, 4 h / optical density of A. viscosus culture, 22 h / optical density of A. viscosus culture, 24 h: 10% concentration in a mouth rinse
Experimental: The effects of 1-decyl-3-methylimidazolium (DMIM) chloride on bacterial growth were investigated in vitro. DMIM chloride was incorporated into a prototype mouth rinse as illustrated in Table 17. […] The growth inhibition was measured as a change in optical density over time.
The antibacterial effects of various ionic liquids were determined according to the protocol described in Example 12.

[1] = system: 3-day old biofilm of the artificial mouth consortium of bacteria (A. naeslundii, S. oralis, V. parvula, L. casei, F. nucleatum) and S. mutans; assay: In vitro biofilm removal, 3-day old biofilm (protocol of Example 2); format: cell-based; conditions: for Percent Removal of a 3-day Oral Biofilm: […] ionic liquid in base prototype mouth rinse of Table 1, 15 minutes, relative to water control; for Percent Biofilm Removal: BMIM-based ionic liquids
Experimental: The 3-day old biofilm was grown on a 24 well plate using the artificial mouth consortium of bacteria (A. naeslundii, S. oralis, V. parvula, L. casei, F. nucleatum) and S. mutans. To generate the biofilm, plates were inoculated with saliva overnight to form a pellicle. The consortium of bacteria (1 mL) at an OD of ˜0.2 was added to each well. The bacterial media (Tryptic Soy Broth with 6% sucrose) was changed after 48 hours. The 3-day old biofilm was treated with the prototype formulation (500 μL) for 15 minutes on a plate shaker at 300 rpm. After incubation, the supernatant was discarded. The optical density of each well was measured and the percentage reduction in optical density relative to the control (water) was calculated to determine the effect of the prototype formulation on biofilm removal. […]
Water, untreated biofilm, commercially available mouthwash formulations with CPC (Cetyl pyridinium chloride) and a mouthwash containing five enzymes for combatting biofilm acted as […] for the experiment.

[2] = system: 3-day old multispecies oral biofilm (artificial mouth consortium combined with Streptococcus mutans); assay: In vitro removal of biofilm by prototype mouthrinse formulations (Example 8); format: cell-based; conditions: for Percent Biofilm Removal: 10% glycerin and 5% propylene glycol; for % removal in High humectant mouthwash / % removal in Low humectant mouthwash: 3-day old biofilm
Experimental: General Procedures Used to Prepare Biofilm
The analyst used a commercially available fluoride dentifrice (Colgate Pro Clinical) and a soft bristled toothbrush (Colgate 360) for routine oral hygiene for 3 days prior to the start of saliva collection. Saliva was collected in the morning, at least two hours after a meal and was centrifuged at 10,000 rpm for 20 minutes. The supernatant was decanted into a Petri dish and placed under UV for 45 minutes.
Bacteria Preparation: Bacteria were taken from the artificial mouth consortium (containing Actinomyces naeslundii, Streptococcus oralis, Veillonella parvula, Lactobacillus casei, and Fusibacterium nucleatum) and combined with Streptococcus mutans which had been grown separately in a ratio of 2:1. Bacteria were grown in tryptic soy broth (TSB) media with 6% sucrose. The resulting bacterial culture was diluted to the required volume, prior to diluting to an optical density of 0.2.
Plate Preparation: 500 μL of UV-treated saliva were added to each well of a 24-well plate. Plates were inoculated overnight in 37° C. After inoculation, excess saliva was discarded and 1 ml of bacteria was added to each well. The bacteria were allowed to attach and develop a biofilm on the bottom of each well over 2 to 4 days, changing the media every 48 hours. During media change, the old media was discarded and 1 ml of fresh media was added.
Treatment: 500 μL of ionic liquid formulation was added to each well and incubated for 4-30 minutes on a plate shaker at 300 rpm. After incubation, the supernatant was discarded. No rinsing was carried out. The optical density of each well was measured at 610 nm, and the percentage reduction in biofilm reduction relative to the control (water) was calculated.
Second Treatment: 500 μL of ionic liquid formulation was added to each well and incubated for 4-30 minutes on a plate shaker at 300 rpm. After discarding the supernatant, the optical density was measured and the percentage reduction in biofilm formation relative to the control (water) was calculated.
An 8 factor design was used. Colgate Plax Re-launch mouth rinse was used a base formulation to build upon. […] Table 11 illustrates the general formulation on the basis of which the prototype formulations were designed.
74 prototype formulations were developed. There are shown below in Table 12 (see next page). Table 12 further illustrates the percentage biofilm reduction after one 15-minute treatment of a 3-day-old biofilm with the formulation, and the viscosity for each formulation. In Table 12, PG is propylene glycol; CPC is cetyl pyridinium chloride; and TRIS is tris(2-hydroxyethyl)methylammonium methylsulfate. All amounts are given in wt %.

[3] = Teeth whitening, in-vitro removal of tooth stains (one hour soak); parameters: species or system human; conditions: 1M in prototype mouth wash of Table 7
Experimental: The method of determining the effects of imidazolium-based ionic liquids on teeth whitening was carried out as follows:
The initial L*a*b* measurements of dried artificially stained human teeth were captured. The teeth were then soaked in 1 ml of sample solution for one hour, and sample was replenished at 30 minutes. After treatment, teeth were soaked in DI water for approximately 10 minutes. The teeth were left to dry at least overnight, and final L*a*b* measurements were then taken. (L*a*b* refers to stain score in accordance with the Commission International de L'Eclairage Laboratory (CIELAB) color scale. L* (lightness-darkness scale), a* (red-green chroma) and b* (yellow-blue chroma)).
The whitening efficacy was determined as follows:
All the EMIM-based compounds were evaluated at 1M concentration in a prototype mouth wash formulation as illustrated in Table 7.

[4] = other ionic liquids, 3-day old biofilm
[5] = […] in base prototype mouth rinse of Table 1, 3-day old biofilm
[6] = direct comparison EMIM vs BMIM with different anions, 3-day old biofilm
[7] = one ionic liquid at 10, the other at 0
[8] = one ionic liquid at 20, the other at 0
[9] = EMIM-based ionic liquids, […] in base prototype mouth rinse of Table 1, 3-day old biofilm

Row | Compound | optical density of A. viscosus culture, 0 h (A. viscosus) | optical density of A. viscosus culture, 4 h (A. viscosus) | optical density of A. viscosus culture, 22 h (A. viscosus) | optical density of A. viscosus culture, 24 h (A. viscosus) | Percent Removal of a 3-day Oral Biofilm [1] [%] | other results
1 | 1,2,4-trimethylpyrazolium methylsulfate [MMMPz MeSO4] | 0.1482 | 0.1978 | 0.8519 | 1.0042 | 57.8 | Percent Biofilm Removed [1, 4]: 57.9%
2 | C=CCn1cc[n+](C)c1.[Cl-] [AMIM Cl, 1-allyl-3-methylimidazolium (AMIM) chloride] | 0.1482 | 0.2265 | 0.7091 | 0.8440 | 44.8 | biofilm removal, comparison in words ([1]; 3-day old biofilm): effective in removing biofilm; Percent Biofilm Removed [1, 4]: 44.8%
3 | CCCCn1cc[n+](C)c1.[Br-] [BMIM Br, 1-butyl-3-methylimidazolium (BMIM) bromide] | 0.1482 | 0.2373 | 0.5994 | 0.8244 | 48.0 | Percent Biofilm Removal [1, 5]: 48.0%; Percent Biofilm Removed [1, 6]: 48.0%
4 | CCCCn1cc[n+](C)c1.[Cl-] [BMIM Cl, 1-butyl-3-methylimidazolium (BMIM) chloride] | – | – | – | – | 43.8 | Percent Biofilm Removal [1, 5]: 43.8%; Percent Biofilm Removed [1, 6]: 43.8%
5 | CCCCn1cc[n+](C)c1.COS(=O)(=O)[O-] [BMIM MeSO4, BMIM methyl sulfate] | – | – | – | – | 53.9 | Percent Biofilm Removal [1, 5]: 53.9%
6 | CC(=O)[O-].CCCCn1cc[n+](C)c1 [BMIM OAc, BMIM acetate] | – | – | – | – | 55.9 | Percent Biofilm Removal [1, 5]: 55.8%; Percent Biofilm Removed [1, 6]: 55.8%
7 | CCCCCCCCOS(=O)(=O)[O-].CCCCn1cc[n+](C)c1 [BMIM Octyl SO4, BMIM octyl sulfate] | – | – | – | – | 58.6 | Percent Biofilm Removal [1, 5]: 58.6%
8 | C[N+](C)(C)CCO.O=C([O-])c1ccccc1O [Choline salicylate, choline salicylate] | 0.1482 | 0.1523 | 0.1542 | 0.1539 | – | growth inhibition of A. viscosus, in words (A. viscosus; formulated at 10% concentration in a mouth rinse): greater growth inhibition of A. viscosus than control compositions containing cetyl pyridinium chloride; Percent Biofilm Removal [2, 7]: 48%; Percent biofilm removal if sorbitol at 20% [2, 7]: 53%; Percent Biofilm Removal [2, 8]: 61%; Percent biofilm removal if sorbitol at 20% [2, 8]: 66%
9 | CCn1cc[n+](C)c1.[Cl-] [EMIM Cl, 1-ethyl-3-methylimidazolium (EMIM) chloride] | – | – | – | – | 44.3 | Percent Biofilm Removed [1, 9]: 44.3%; Percent Biofilm Removed [1, 6]: 44.3%
10 | CCOS(=O)(=O)[O-].CCn1cc[n+](C)c1 [EMIM Ethyl SO4, EMIM ethyl sulfate] | 0.1482 | 0.2499 | 0.7514 | 0.7965 | 48.1 | ΔE [3]: 4.41; ΔL [3]: 3.40; ΔW [3]: −2.99; Percent Biofilm Removed [1, 9]: 48.1%
11 | CC(=O)[O-].CCn1cc[n+](C)c1 [EMIM OAc, EMIM acetate] | 0.1482 | 0.2324 | 0.7942 | 0.8223 | 52.1 | Percent Biofilm Removed [1, 9]: 52.1%; Percent Biofilm Removed [1, 6]: 52.1%
12 | CCn1cc[n+](C)c1.Cc1ccc(S(=O)(=O)[O-])cc1 [EMIM Tosylate, EMIM tosylate] | – | – | – | – | 59.5 | Percent Biofilm Removed [1, 9]: 59.5%
13 | CCOP(=O)([O-])OCC.CCn1cc[n+](C)c1 [EMIM diethyl PO4, EMIM diethyl phosphate] | – | – | – | – | 52.7 | Percent Biofilm Removed [1, 9]: 52.7%
14 | C[N+](C)(C)CCO.[Cl-] [F: Choline chloride, Choline chloride] | 0.1482 | 0.2445 | 1.0236 | 1.0674 | – | –
15 | COS(=O)(=O)[O-].Cc1n(C)cc[n+]1C [TMIM MeSO4, 1,2,3-trimethylimidazolium (TMIM) methyl sulfate] | – | – | – | – | 51.8 | Percent Biofilm Removed [1, 4]: 51.8%
16 | OC[C@@H](O)[C@@H](O)[C@H](O)[C@@H](O)CO [sorbitol] | – | – | – | – | – | increase in biofilm removal ([2]; 20% sorbitol in the formulations): ~5%
17 | choline acetate | 0.1482 | 0.2559 | 0.9480 | 1.0385 | – | –
18 | tris(2-hydroxyethyl)methylammonium methylsulfate [MTEOA MeSO4] | 0.1482 | 0.2605 | 0.8415 | 0.9087 | 52.8 | % removal in High humectant mouthwash ([2]; Conc Tris-HMAM 1%): 39.0%; % removal in Low humectant mouthwash ([2]; Conc Tris-HMAM 1%): 25.6%; % removal in High humectant mouthwash ([2]; Conc Tris-HMAM 2.5%): 50.5%; % removal in Low humectant mouthwash ([2]; Conc Tris-HMAM 2.5%): 28.2%; % removal in High humectant mouthwash ([2]; Conc Tris-HMAM 5%): 53.9%; % removal in Low humectant mouthwash ([2]; Conc Tris-HMAM 5%): 30.9%; % removal in High humectant mouthwash ([2]; Conc Tris-HMAM 10%): 57.7%; % removal in Low humectant mouthwash ([2]; Conc Tris-HMAM 10%): 46.8%; % removal in High humectant mouthwash ([2]; Conc Tris-HMAM 20%): 71.1%; % removal in Low humectant mouthwash ([2]; Conc Tris-HMAM 20%): 57.3%; % removal in High humectant mouthwash ([2]; Conc Tris-HMAM 40%): 73.2%; % removal in Low humectant mouthwash ([2]; Conc Tris-HMAM 40%): 67.1%; Percent Biofilm Removal [2, 7]: 47%; Percent biofilm removal if sorbitol at 20% [2, 7]: 52%; Percent Biofilm Removal [2, 8]: 60%; Percent biofilm removal if sorbitol at 20% [2, 8]: 65%; Percent Biofilm Removed [1, 4]: 52.8%

Source: US20150335548A1, “Oral Care Composition” (COLGATE-PALMOLIVE COMPANY, priority 2012, published 2015)
